Like-named read-outs stand apart in the source and are kept apart here. Square brackets hold non-standard residues; d marks the D form. Peptide text beside a SMILES is read from it. Cit = NC(=O)NCCC[C@H](N)C(=O)O
Assays:
[1] = molecular target: T1, HLA-DRB1*01:01 (Homo sapiens, UniProt P01903+P01911, A100R/D57E/F55L/F60I/F76Y/I96L/L162R/M171V/P40L/Q125E/R42F/V115G/Y59C); assay: HLA class II peptide binding, inhibition of radiolabeled peptide binding to purified MHC; conditions: for DRB1*01:01 binding capacity, WT/cit ratio: ratio of WT IC50 to Cit IC50, >1 = citrullination increases binding
T1 construct: EBV transformed homozygous cell lines were used as sources of MHC molecules; endogenous in cells; host or cells: EBV transformed homozygous cell lines

[2] = molecular target: T2, HLA-DRB1*04:01 (Homo sapiens, UniProt P01903+P01911, A100K/A169T/F76Y/I96L/K127E/L162R/M171V/N62H/P40V/Q125Y/R42H/S133A/S149N/S66Y/V115G/V209L/W38E); assay: as above; conditions: for DRB1*04:01 binding capacity, WT/cit ratio: ratio of WT IC50 to Cit IC50, >1 = citrullination increases binding
T2 construct: EBV transformed homozygous cell lines were used as sources of MHC molecules; endogenous in cells; host or cells: EBV transformed homozygous cell lines

[3] = citrullinated 15-mer peptide (X = citrulline), purified HLA-DRB1*01:01, read-out: DRB1*01:01 binding capacity, Cit peptide (IC50 nM)
[4] = citrullinated 15-mer peptide (X = citrulline), purified HLA-DRB1*04:01, read-out: DRB1*04:01 binding capacity, Cit peptide (IC50 nM)
[5] = citrullinated 15-mer (X), purified MHC, inhibition of radiolabeled peptide binding, dash = IC50 >40,000 nM, read-out: DRB1*01:01 binding capacity, Cit peptide (IC50 nM)
[6] = citrullinated 15-mer (X), purified MHC, inhibition of radiolabeled peptide binding, dash = IC50 >40,000 nM, read-out: DRB1*04:01 binding capacity, Cit peptide (IC50 nM)
[7] = citrullinated peptide as listed (X at Cit position), read-out: DRB1*01:01 binding capacity Cit peptide (IC50 nM)
[8] = value of the wild-type (non-citrullinated) counterpart of the listed peptide, read-out: DRB1*01:01 binding capacity WT peptide (IC50 nM)
[9] = citrullinated peptide as listed (X at Cit position), read-out: DRB1*04:01 binding capacity Cit peptide (IC50 nM)
[10] = value of the wild-type (non-citrullinated) counterpart of the listed peptide, read-out: DRB1*04:01 binding capacity WT peptide (IC50 nM)

SMILES: CSCC[C@H](NC(=O)[C@H](CCC(=O)O)NC(=O)[C@H](CCCNC(N)=O)NC(=O)[C@H](CCSC)NC(=O)[C@H](CCC(N)=O)NC(=O)[C@H](CCCNC(=N)N)NC(=O)[C@@H](N)CCC(=O)O)C(=O)N[C@@H](CCC(=O)O)C(=O)N[C@@H](CCC(=O)O)C(=O)N[C@@H](CC(N)=O)C(=O)N[C@@H](Cc1ccccc1)C(=O)N[C@@H](C)C(=O)N[C@H](C(=O)N[C@@H](CCC(=O)O)C(=O)N[C@@H](C)C(=O)O)C(C)C [ERQMXEMEENFAVEA] (H-ERQM[Cit]EMEENFAVEA-OH)
- IC50 [1, 3]: 9530 nM
- IC50 [2, 4]: 3220 nM

SMILES: CC(C)C[C@H](NC(=O)CNC(=O)[C@@H]1CCCN1C(=O)[C@H](Cc1ccccc1)NC(=O)CNC(=O)[C@H](CCCNC(N)=O)NC(=O)[C@@H](N)CCC(=O)O)C(=O)N1CCC[C@H]1C(=O)NCC(=O)N1CCC[C@H]1C(=O)N[C@@H](CO)C(=O)NCC(=O)N[C@@H](CCC(=O)O)C(=O)N1CCC[C@H]1C(=O)NCC(=O)O [EXGFPGLPGPSGEPG] (H-E[Cit]GFPGLPGPSGEPG-OH)
- IC50 [1, 3]: 2210 nM
- IC50 [2, 4]: > 40000 nM

SMILES: CC(C)C[C@H](NC(=O)CNC(=O)[C@H](CCCNC(N)=O)NC(=O)[C@@H](N)CCC(=O)O)C(=O)N[C@@H](CCCCN)C(=O)NCC(=O)N[C@@H](Cc1c[nH]cn1)C(=O)N[C@@H](CCCNC(=N)N)C(=O)NCC(=O)N[C@@H](Cc1ccccc1)C(=O)N[C@H](C(=O)NCC(=O)N[C@@H](CC(C)C)C(=O)N[C@@H](CCC(N)=O)C(=O)NCC(=O)O)[C@@H](C)O [EXGLKGHRGFTGLQG] (H-E[Cit]GLKGHRGFTGLQG-OH)
- IC50 [1, 3]: 96 nM
- IC50 [2, 4]: > 40000 nM

SMILES: C[C@H](NC(=O)CNC(=O)[C@H](C)NC(=O)[C@@H]1CCCN1C(=O)CNC(=O)[C@@H](NC(=O)[C@H](CCCNC(=N)N)NC(=O)CNC(=O)[C@H](CCCNC(N)=O)NC(=O)[C@@H](N)CCC(=O)O)[C@@H](C)O)C(=O)N[C@@H](C)C(=O)NCC(=O)N[C@@H](C)C(=O)N[C@@H](CCCNC(=N)N)C(=O)NCC(=O)O [EXGRTGPAGAAGARG] (H-E[Cit]GRTGPAGAAGARG-OH)
- IC50 [1, 3]: 1620 nM
- IC50 [2, 4]: > 40000 nM

SMILES: CC[C@H](C)[C@H](NC(=O)[C@H](CCC(=O)O)NC(=O)[C@H](CCC(=O)O)NC(=O)[C@H](CCC(N)=O)NC(=O)[C@H](CC(C)C)NC(=O)[C@H](CO)NC(=O)[C@H](CCC(=O)O)NC(=O)[C@@H](NC(=O)[C@H](CCCCN)NC(=O)[C@H](CCCNC(N)=O)NC(=O)[C@@H](N)CCC(=O)O)C(C)C)C(=O)N[C@@H](C)C(=O)N[C@@H](Cc1ccccc1)C(=O)N[C@@H](CC(C)C)C(=O)N[C@@H](CCCCN)C(=O)O [EXKVESLQEEIAFLK] (H-E[Cit]KVESLQEEIAFLK-OH)
- IC50 [1, 5]: 148 nM
- IC50 [2, 6]: > 40000 nM

SMILES: CSCC[C@H](NC(=O)[C@H](CCC(=O)O)NC(=O)[C@H](CCCNC(=N)N)NC(=O)[C@H](CCSC)NC(=O)[C@H](CCC(N)=O)NC(=O)[C@H](CCCNC(N)=O)NC(=O)[C@@H](N)CCC(=O)O)C(=O)N[C@@H](CCC(=O)O)C(=O)N[C@@H](CCC(=O)O)C(=O)N[C@@H](CC(N)=O)C(=O)N[C@@H](Cc1ccccc1)C(=O)N[C@@H](C)C(=O)N[C@H](C(=O)N[C@@H](CCC(=O)O)C(=O)N[C@@H](C)C(=O)O)C(C)C [EXQMREMEENFAVEA] (H-E[Cit]QMREMEENFAVEA-OH)
- IC50 [1, 3]: 5960 nM
- IC50 [2, 4]: 1160 nM

SMILES: CC[C@H](C)[C@H](NC(=O)[C@H](CC(=O)O)NC(=O)[C@@H](NC(=O)[C@@H](NC(=O)[C@@H]1CCCN1C(=O)[C@H](CC(C)C)NC(=O)[C@H](CCCNC(N)=O)NC(=O)[C@H](CO)NC(=O)[C@@H](NC(=O)[C@H](CCCCN)NC(=O)[C@H](CCC(N)=O)NC(=O)[C@H](CO)NC(=O)[C@H](CCCNC(=N)N)NC(=O)[C@H](Cc1ccc(O)cc1)NC(=O)[C@@H](N)CCC(=O)O)[C@@H](C)O)[C@@H](C)CC)[C@@H](C)CC)C(=O)O [EYRSQKTSXLPIIDI] (H-EYRSQKTS[Cit]LPIIDI-OH)
- IC50 [1, 7]: 6.9 nM
- IC50 [1, 8]: 14 nM
- IC50 [2, 9]: 316 nM
- IC50 [2, 10]: 314 nM

SMILES: CC[C@H](C)[C@H](NC(=O)[C@H](CC(=O)O)NC(=O)[C@@H](NC(=O)[C@@H](NC(=O)[C@@H]1CCCN1C(=O)[C@H](CC(C)C)NC(=O)[C@H](CCCNC(=N)N)NC(=O)[C@H](CO)NC(=O)[C@@H](NC(=O)[C@H](CCCCN)NC(=O)[C@H](CCC(N)=O)NC(=O)[C@H](CO)NC(=O)[C@H](CCCNC(N)=O)NC(=O)[C@H](Cc1ccc(O)cc1)NC(=O)[C@@H](N)CCC(=O)O)[C@@H](C)O)[C@@H](C)CC)[C@@H](C)CC)C(=O)O [EYXSQKTSRLPIIDI] (H-EY[Cit]SQKTSRLPIIDI-OH)
- IC50 [1, 7]: 5.9 nM
- IC50 [1, 8]: 14 nM
- IC50 [2, 9]: 473 nM
- IC50 [2, 10]: 314 nM

SMILES: CC[C@H](C)[C@H](NC(=O)[C@@H](NC(=O)[C@H](CC(=O)O)NC(=O)[C@H](CCC(N)=O)NC(=O)[C@H](Cc1ccc(O)cc1)NC(=O)[C@H](CC(N)=O)NC(=O)[C@H](C)NC(=O)[C@H](C)NC(=O)[C@H](CCC(=O)O)NC(=O)[C@@H](NC(=O)[C@H](C)NC(=O)[C@@H](N)Cc1ccccc1)C(C)C)[C@@H](C)O)C(=O)NCC(=O)N[C@@H](CCCNC(N)=O)C(=O)N[C@@H](CC(C)C)C(=O)O [FAVEAANYQDTIGXL] (H-FAVEAANYQDTIG[Cit]L-OH)
- IC50 [1, 3]: 642 nM
- IC50 [2, 4]: 768 nM

SMILES: CC(C)C[C@H](NC(=O)[C@H](CCC(=O)O)NC(=O)[C@H](CCC(N)=O)NC(=O)[C@H](CC(C)C)NC(=O)[C@H](CCC(=O)O)NC(=O)[C@@H](NC(=O)[C@H](CCCCN)NC(=O)[C@H](CCC(=O)O)NC(=O)[C@H](CC(N)=O)NC(=O)[C@@H](NC(=O)[C@H](CCCNC(N)=O)NC(=O)[C@@H](NC(=O)[C@H](CC(N)=O)NC(=O)[C@H](CCCCN)NC(=O)[C@@H](N)Cc1ccccc1)[C@@H](C)O)[C@@H](C)O)C(C)C)C(=O)O [FKNTXTNEKVELQEL] (H-FKNT[Cit]TNEKVELQEL-OH)
- IC50 [1, 5]: 9330 nM
- IC50 [2, 6]: 1140 nM

SMILES: CC(C)C[C@H](NC(=O)[C@H](CC(=O)O)NC(=O)[C@H](CC(C)C)NC(=O)[C@H](CCCNC(N)=O)NC(=O)[C@H](C)NC(=O)[C@H](CC(C)C)NC(=O)[C@H](CO)NC(=O)[C@H](C)NC(=O)[C@H](CC(N)=O)NC(=O)[C@H](CC(=O)O)NC(=O)[C@@H](NC(=O)[C@H](CC(=O)O)NC(=O)[C@H](CCC(N)=O)NC(=O)[C@H](CCCNC(=N)N)NC(=O)[C@@H](N)Cc1ccccc1)C(C)C)C(=O)O [FRQDVDNASLAXLDL] (H-FRQDVDNASLA[Cit]LDL-OH)
- IC50 [1, 5]: 3940 nM
- IC50 [2, 6]: 279 nM

SMILES: CC[C@H](C)[C@H](NC(=O)[C@H](C)NC(=O)[C@H](CC(=O)O)NC(=O)[C@H](C)NC(=O)[C@H](CC(C)C)NC(=O)[C@H](CO)NC(=O)[C@@H](N)Cc1ccccc1)C(=O)N[C@@H](CC(N)=O)C(=O)N[C@H](C(=O)N[C@@H](CCC(=O)O)C(=O)N[C@@H](Cc1ccccc1)C(=O)N[C@@H](CCCCN)C(=O)N[C@@H](CC(N)=O)C(=O)N[C@H](C(=O)N[C@@H](CCCNC(N)=O)C(=O)O)[C@@H](C)O)[C@@H](C)O [FSLADAINTEFKNTX] (H-FSLADAINTEFKNT[Cit]-OH)
- IC50 [1, 5]: 41 nM
- IC50 [2, 6]: 22600 nM

SMILES: CC(C)C[C@H](NC(=O)[C@H](CC(=O)O)NC(=O)[C@H](CC(C)C)NC(=O)[C@H](CCCNC(=N)N)NC(=O)[C@H](C)NC(=O)[C@H](CC(C)C)NC(=O)[C@H](CO)NC(=O)[C@H](C)NC(=O)[C@H](CC(N)=O)NC(=O)[C@H](CC(=O)O)NC(=O)[C@@H](NC(=O)[C@H](CC(=O)O)NC(=O)[C@H](CCC(N)=O)NC(=O)[C@H](CCCNC(N)=O)NC(=O)[C@@H](N)Cc1ccccc1)C(C)C)C(=O)O [FXQDVDNASLARLDL] (H-F[Cit]QDVDNASLARLDL-OH)
- IC50 [1, 5]: 7990 nM
- IC50 [2, 6]: 280 nM

SMILES: CC(C)[C@H](NC(=O)CNC(=O)[C@H](C)NC(=O)[C@H](C)NC(=O)CNC(=O)[C@H](CC(=O)O)NC(=O)[C@H](CCCNC(N)=O)NC(=O)CNC(=O)[C@@H]1CCCN1C(=O)[C@@H]1CCCN1C(=O)CNC(=O)[C@H](CC(=O)O)NC(=O)[C@H](C)NC(=O)CN)C(=O)N[C@@H](CCCCN)C(=O)O [GADGPPGXDGAAGVK] (H-GADGPPG[Cit]DGAAGVK-OH; N-terminus and C-terminus assumed)
- IC50 [1, 3]: > 40000 nM
- DRB1*01:01 binding capacity, WT/cit ratio [1]: 1.0
- IC50 [2, 4]: > 40000 nM
- DRB1*04:01 binding capacity, WT/cit ratio [2]: 1.0

SMILES: CC(C)C[C@H](NC(=O)CNC(=O)[C@H](CCC(N)=O)NC(=O)[C@@H]1CCCN1C(=O)CNC(=O)[C@@H]1CCCN1C(=O)[C@@H]1CCCN1C(=O)CNC(=O)[C@H](CCC(=O)O)NC(=O)[C@H](C)NC(=O)CN)C(=O)N[C@@H](C)C(=O)NCC(=O)N[C@@H](CCC(N)=O)C(=O)N[C@@H](CCCNC(N)=O)C(=O)O [GAEGPPGPQGLAGQX] (H-GAEGPPGPQGLAGQ[Cit]-OH; N-terminus and C-terminus assumed)
- IC50 [1, 3]: > 40000 nM
- DRB1*01:01 binding capacity, WT/cit ratio [1]: 1.0
- IC50 [2, 4]: > 40000 nM
- DRB1*04:01 binding capacity, WT/cit ratio [2]: 1.0

SMILES: CC(C)C[C@H](NC(=O)CNC(=O)[C@H](CCC(N)=O)NC(=O)[C@H](C)NC(=O)CN)C(=O)N[C@@H](CCC(N)=O)C(=O)NCC(=O)N1CCC[C@H]1C(=O)N[C@@H](CCCNC(N)=O)C(=O)NCC(=O)N[C@@H](CC(C)C)C(=O)N1CCC[C@H]1C(=O)NCC(=O)N[C@H](C(=O)N1CCC[C@H]1C(=O)O)[C@@H](C)O [GAQGLQGPXGLPGTP] (H-GAQGLQGP[Cit]GLPGTP-OH)
- IC50 [1, 3]: 578 nM
- IC50 [2, 4]: > 40000 nM
